Reference: patent publication US20250051264A1, “CANNABIDIOL DERIVATIVE, PREPARATION METHOD THEREFOR AND APPLICATION THEREOF” (DEYI PHARMACEUTICAL LTD., priority 2021, published 2025)

What was measured:
Type in all cases: in vivo, C57/BL6 mice
[1] = test system: model of Parkinson's disease; assay: Behavioral balance beam score in the MPTP mouse model of Parkinson's disease; details: for balance beam score after treatment: after 14 days intragastric treatment, model group 4-5 points; for Behavioral balance beam score, After treatment: after intragastric administration once a day for 14 days (compound 3 100 mg/kg; amantadine 40 mg/kg), model group 4.50 ± 0.53; for Behavioral balance beam score, After treatment / Behavioral balance beam score, After modeling: scale 0-5; for balance beam score as compared to the model group: after treatment, P≤0.05; for Behavioral balance beam score, After modeling: baseline 7 days after MPTP 25 mg/kg i.p. once daily, before treatment, mean ± SD, 8 mice per group
Experimental: C57/BL6 mice, SPF grade, weighing 18-20 g, aged 6-8 weeks, male, purchased from Shanghai Slac Laboratory Animal Co., Ltd. Feeding environment: the temperature was kept at 22±1° C., and the humidity was kept at 65%-70%, in a 12/12 hour light/dark illumination cycle, with free access to water.
(1) 32 SPF-grade C57 mice aged 6-8 weeks were purchased and acclimatized for one week, and subsequently the modeling was started.
(§1) (2) MPTP (25 mg/kg) was intraperitoneally injected once a day for 7 consecutive days. The blank group was left untreated.
(§2) (3) After modeling, administration was started. […] The intragastric administration was performed once a day for 14 consecutive days.
(4) Behavioral test was first performed by balance beam test scoring.
A beam of 80 cm long and 2.5 cm wide was horizontally fixed at a height of 10 cm from the table top, and subsequently, the animals were allowed to walk on the beam.
The scoring scale was as follows: being able to jump on the balance beam and to walk freely without falling down: 0 points; being able to jump on the balance beam, but having a probability of tumbling down of less than 50% when walking on the balance beam: 1 point; being able to jump on the balance beam, but having a probability of tumbling down of greater than 50% when walking on the balance beam: 2 points; being able to jump on the balancing beam with the help of the normal side of the body, but failing to get help from the hind limb on the paralyzed side to move forward: 3 points; being unable to walk on the balance beam, but being able to sit on the beam: 4 points; falling off quickly when being placed on the beam: 5 points.

[2] = test system: tyrosine hydroxylase (TH) cells in substantia nigra (SubN); assay: Tyrosine hydroxylase (TH) cells in substantia nigra (SubN) by immunohistochemistry in the MPTP mouse model of Parkinson's disease; details: for positive rate of TH cells in substantia nigra as compared to the model group: after treatment; for TH cell positive rate: substantia nigra, after 14 days intragastric treatment (compound 3 100 mg/kg; amantadine 40 mg/kg), blank 34.27 ± 5.08, model 12.74 ± 1.71
Experimental: as §1, §2
The tissue should be cut using sharp knives and scissors. When cutting a tissue mass, the tissue was cut by pulling backwards from the root of the knife. […] The prepared tissue mass was fixed in 10% formalin for 48 h.
The fixed tissue was washed with running water to remove residual fixing liquid and impurities. The tissue mass was dehydrated in stages with different concentrations of ethanol (50%, 70%, 85%, 95%, up to pure alcohol (absolute ethanol)), each stage for 2 h. Dehydration must be performed in a capped flask to prevent high concentrations of ethanol from absorbing moisture in the air, resulting in reduced concentrations and incomplete dehydration. The material to be preserved can remain in 70% ethanol when being dehydrated with it. For long-term preservation, an equivalent amount of glycerol can be added.
The tissue mass was placed into a mixed solution of pure ethanol and xylene in an equivalent volume and left to stand for 2 h, subsequently placed into pure xylene and left to stand for two hours, and placed into pure xylene and left to stand for another two hours. After transparentizing, the effect of the previous dehydration of the material can be shown. If the dehydration is complete, the tissue is in a transparent state, and if there is a white cloud-shaped substance in the tissue, it means that the dehydration is incomplete and must be reworked, but the effect of rework is often not good. When xylene is used for transparentizing, it should be prevented from volatilizing and absorbing moisture in the air, and it should be kept in an anhydrous state.
The paraffin immersion must be performed in a thermostat. The tissue mass material was first immersed in a mixed solution of molten paraffin and xylene in equal volume for 1-2 h and subsequently immersed in 2 parts of molten paraffin solutions for 3 h each.
Embedding is the encapsulation of the paraffin-impregnated tissue mass with paraffin. Specifically, a paper box was first prepared, molten paraffin was added to the box, a tissue mass was quickly clamped by using a pair of pre-heated tweezers, and placed flat at the bottom of the paper box with a cut surface facing downwards. Subsequently, the paper box was slightly lifted up and placed flat in cold water, immediately pressed into the water after the paraffin on the surface was solidified for quickly cooling and solidifying the paraffin, and taken out after 30 min.
The paraffin block was placed in a refrigerator at −20° C. for at least 30 min before slicing to increase hardness. […]

dopamine in striatum = assay: Content of dopamine in brain striatum by the kit method (ELISA) in the MPTP mouse model of Parkinson's disease
Experimental: as §1, §2
After the mice were sacrificed quickly, the brains of the mice were taken and the cerebral palliums (CPs) of the mice were isolated. After exposing the brain striatum of the mice, the striatum was weighed and homogenized after adding PBS according to a proportion. The supernatant was isolated and detected for the content of dopamine in the brain striatum.
(1) Standard curve plotting: a microplate was taken, and reagents were added according to the table below.
(2) According to the number of samples, a proper amount of BCA working solution was prepared by uniformly mixing BCA reagent A and reagent B according to a volume ratio of 50:1.
(3) 160 μL of BCA working solution was added to each well.
(4) The microplate was shaken on a shaker for 30 s, left to stand at 37° C. for 30 min, and subsequently measured for absorbance at 562 nm. A standard curve was plotted with the absorbance value as an abscissa and the protein concentration (μg/μL) as an ordinate.
(5) 2 μL of test protein and 18 μL of PBS (10-fold dilution) were added to the microplate, 160 μL of BCA working solution was added, and the microplate was shaken on a shaker for 30 s, left to stand at 37° C. for 30 min, and subsequently measured for the absorbance at 562 nm.
(7) The experimental procedures and methods for the determination of dopamine in mice were referred to the kit instructions.

Compound | balance beam score after treatment [1] | Behavioral balance beam score, After treatment [1] | balance beam score as compared to the model group [1] | Behavioral balance beam score, After modeling [1] | positive rate of TH cells in substantia nigra as compared to the model group [2] | TH cell positive rate [2] | DA content of dopamine in striatum after treatment (dopamine in striatum; after 14 days intragastric treatment (compound 3 100 mg/kg; amantadine 40 mg/kg), blank 0.71 ± 0.16, model 0.30 ± 0.07) | dopamine content as compared to the model group (dopamine in striatum; after treatment, P≤0.01) | content of dopamine compared with the blank group (dopamine in striatum; after treatment, P≤0.05)
NC12CC3CC(CC(C3)C1)C2 [Positive drug, amantadine, reference compound] | 2-3 points | 2.13 ± 0.83 | significant descending trend | 4.75 ± 0.46 | significant increase | 20.82 ± 5.77 % | – | – | –
C=C(C)[C@@H]1CCC(C)=C[C@H]1c1c(OC(=O)[C@@H](N)CCCCN)cc(CCCCC)cc1OC(=O)[C@@H](N)CCCCN [compound 3] | 3-4 points | 3.50 ± 1.07 | significant descending trend | 4.38 ± 0.52 | increase | 14.59 ± 2.60% | 0.45 ± 0.10 ng/mg | increase | significant decrease
